# Data: patent US20250213735A1, “NEUROPEPTIDE Y1 RECEPTOR (NPY1R) TARGETED THERAPEUTICS AND USES THEREOF” (Radionetics Oncology, Inc., priority 2023, published 2025)
# Biological target: hNPY1R (Homo sapiens (Human), UniProt P25929)
# Assay: NPY1R binding assay (SK-N-MC membrane, [125I]-Peptide YY competition);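 further: bound radioligand separated by filtration over GF/C filter plates and counted, Ki obtained by non-linear regression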
# Conditions: crude SK-N-MC membranes endogenously expressing NPY1R; [125I]-Peptide YY (human) 0.05 nM; 120 min at room temperature; read-out: hNPY1R binding Ki
# Sequence of hNPY1R (P25929 whole entry): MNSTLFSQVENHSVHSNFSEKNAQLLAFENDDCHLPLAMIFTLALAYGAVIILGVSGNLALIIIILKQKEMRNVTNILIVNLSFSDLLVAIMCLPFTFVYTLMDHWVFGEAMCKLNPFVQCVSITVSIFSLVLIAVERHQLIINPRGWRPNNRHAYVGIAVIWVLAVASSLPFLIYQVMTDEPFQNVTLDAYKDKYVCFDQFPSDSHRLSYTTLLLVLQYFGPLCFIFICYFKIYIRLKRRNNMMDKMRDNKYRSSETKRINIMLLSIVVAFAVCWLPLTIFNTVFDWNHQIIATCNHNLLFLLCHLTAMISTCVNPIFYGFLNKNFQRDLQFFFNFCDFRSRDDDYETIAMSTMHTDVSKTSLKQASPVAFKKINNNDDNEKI
row,Compound,Ki [nM]
1,"CCC(=O)NCCNC(=O)/N=C(/N)NCCC[C@@H](NC(=O)[C@H](c1ccc(OCCCNC(=O)[C@H]2CC[C@H](CNC(=O)CN3CCN(CC(=O)O)CCN(CC(=O)O)CCN(CC(=O)O)CC3)CC2)cc1)N1Cc2ccccc2C1)C(=O)NCc1ccc(O)cc1 [compound 18, 2,2′,2″-(10-(2-((((1S,4r)-4-((3-(4-((1S,4R,Z)-9-amino-4-((4-hydroxybenzyl)carbamoyl)-1-(isoindolin-2-yl)-2,11,16-trioxo-3,8,10,12,15-pentaazaoctadec-9-en-1-yl)phenoxy)propyl)carbamoyl)cyclohexyl)methyl)amino)-2-oxoethyl)-1,4,7,10-tetraazacyclododecane-1,4,7-triyl)triacetic acid]",< 10
2,"CCNC(=O)/N=C(/N)NCCC[C@@H](NC(=O)[C@H](c1cccc(NCCCNC(=O)CCOCCNC(=O)CN2CCN(CC(=O)O)CCN(CC(=O)O)CCN(CC(=O)O)CC2)c1)N1Cc2ccccc2C1)C(=O)NCc1c(F)cc(O)cc1F [compound 14, 2,2′,2″-(10-(2-((2-(3-((3-((3-((11R,14S,Z)-6-amino-11-((2,6-difluoro-4-hydroxybenzyl)carbamoyl)-14-(isoindolin-2-yl)-4,13-dioxo-3,5,7,12-tetraazatetradec-5-en-14-yl)phenyl)amino)propyl)amino)-3-oxopropoxy)ethyl)amino)-2-oxoethyl)-1,4,7,10-tetraazacyclododecane-1,4,7-triyl)triacetic acid]",< 10
3,"N=C(N)NCCC[C@@H](NC(=O)[C@H](c1ccccc1)N1Cc2ccccc2C1=O)C(=O)NCc1ccc(O)cc1 [71A, (R)-5-guanidino-N-(4-hydroxybenzyl)-2-((S)-2-(1-oxoisoindolin-2-yl)-2-phenylacetamido)pentanamide]",> 1000
4,"CCC(=O)NCCNC(=O)/N=C(/N)NCCC[C@@H](NC(=O)[C@H](c1cccc(NCCCNC(=O)[C@H](N)CCCCNC(=O)CN2CCN(CC(=O)O)CCN(CC(=O)O)CCN(CC(=O)O)CC2)c1)N1Cc2ccccc2C1)C(=O)NCc1ccc(O)cc1 [compound 25, 2,2′,2″-(10-(2-(((R)-5-amino-6-((3-((3-((1S,4R,Z)-9-amino-4-((4-hydroxybenzyl)carbamoyl)-1-(isoindolin-2-yl)-2,11,16-trioxo-3,8,10,12,15-pentaazaoctadec-9-en-1-yl)phenyl)amino)propyl)amino)-6-oxohexyl)amino)-2-oxoethyl)-1,4,7,10-tetraazacyclododecane-1,4,7-triyl)triacetic acid]",< 10
5,"CCC(=O)NCCNC(=O)/N=C(/N)NCCC[C@@H](NC(=O)[C@H](c1ccccc1)N1Cc2ccccc2C1)C(=O)NCc1ccc(O)cc1 [60A, (R)—N-(4-hydroxybenzyl)-2-((S)-2-(isoindolin-2-yl)-2-phenylacetamido)-5-((Z)-2-((2-propionamidoethyl)carbamoyl)guanidino)pentanamide]",< 10
6,"N=C(N)NCCC[C@@H](NC(=O)C(c1ccccc1)N1CCC(C2CCCCC2)CC1)C(=O)NCc1ccc(O)cc1 (stereo partly drawn) [compound 83, (2R)-2-(2-(4-cyclohexylpiperidin-1-yl)-2-phenylacetamido)-5-guanidino-N-(4-hydroxybenzyl)pentanamide]",> 1000
7,"CCC(=O)NCCNC(=O)/N=C(/N)NCCC[C@@H](NC(=O)[C@H](c1ccc(OCCCNC(=O)CONC(=O)CCNC(=O)CN2CCN(CC(=O)O)CCN(CC(=O)O)CCN(CC(=O)O)CC2)cc1)N1Cc2ccccc2C1)C(=O)NCc1c(F)cc(O)cc1F [compound 44, 2,2′,2″-(10-(14-(4-((1S,4R,Z)-9-amino-4-((2,6-difluoro-4-hydroxybenzyl)carbamoyl)-1-(isoindolin-2-yl)-2,11,16-trioxo-3,8,10,12,15-pentaazaoctadec-9-en-1-yl)phenoxy)-2,6,10-trioxo-8-oxa-3,7,11-triazatetradecyl)-1,4,7,10-tetraazacyclododecane-1,4,7-triyl)triacetic acid]",< 10

# The next lines start with the values.
row,Ki [nM],Compound
1,100 to 1000,"N=C(N)NCCC[C@@H](NC(=O)C(c1ccccc1)N1CCC2(CCCCC2)CC1)C(=O)NCc1ccc(O)cc1 (stereo partly drawn) [compound 87, (2R)-5-guanidino-N-(4-hydroxybenzyl)-2-(2-phenyl-2-(3-azaspiro[5.5]undecan-3-yl)acetamido)pentanamide]"
2,< 10,"CCC(=O)NCCNC(=O)/N=C(/N)NCCC[C@@H](NC(=O)C(c1ccc(OCCCN)cc1)N1Cc2ccccc2C1)C(=O)NCc1c(F)cc(O)cc1F (stereo in doubt) [compound 62, (R)-2-((S)-2-(4-(3-aminopropoxy)phenyl)-2-(isoindolin-2-yl)acetamido)-N-(2,6-difluoro-4-hydroxybenzyl)-5-((Z)-2-((2-propionamidoethyl)carbamoyl)guanidino)pentanamide]"
3,< 10,"CCC(=O)NCCNC(=O)/N=C(/N)NCCC[C@@H](NC(=O)[C@H](c1ccc(OCCCNC(=O)[C@@H](CO)NC(=O)CCNC(=O)CN2CCN(CC(=O)O)CCN(CC(=O)O)CCN(CC(=O)O)CC2)cc1)N1Cc2ccccc2C1)C(=O)NCc1c(F)cc(O)cc1F [compound 48, 2,2′,2″-(10-(2-((3-(((R)-1-((3-(4-((1S,4R,Z)-9-amino-4-((2,6-difluoro-4-hydroxybenzyl)carbamoyl)-1-(isoindolin-2-yl)-2,11,16-trioxo-3,8,10,12,15-pentaazaoctadec-9-en-1-yl)phenoxy)propyl)amino)-3-hydroxy-1-oxopropan-2-yl)amino)-3-oxopropyl)amino)-2-oxoethyl)-1,4,7,10-tetraazacyclododecane-1,4,7-triyl)triacetic acid]"
4,100 to 1000,"N=C(N)NCCC[C@@H](NC(=O)C(c1ccccc1)N1CCC(C(F)(F)F)CC1)C(=O)NCc1ccc(O)cc1 (stereo partly drawn) [compound 73, (2R)-5-guanidino-N-(4-hydroxybenzyl)-2-(2-phenyl-2-(4-(trifluoromethyl)piperidin-1-yl)acetamido)pentanamide]"
5,10 to 100,"N=C(N)NCCC[C@@H](NC(=O)C(c1ccccc1)N1Cc2ccccc2C1)C(=O)NCc1ccc(O)cc1 (stereo partly drawn) [compound 68, (2R)-5-guanidino-N-(4-hydroxybenzyl)-2-(2-(isoindolin-2-yl)-2-phenylacetamido)pentanamide]"
6,10 to 100,"CC(C)(C)C1CCN(C(C(=O)N[C@H](CCCNC(=N)N)C(=O)NCc2ccc(O)cc2)c2ccccc2)CC1 (stereo partly drawn) [compound 80, (2R)-2-(2-(4-(tert-butyl)piperidin-1-yl)-2-phenylacetamido)-5-guanidino-N-(4-hydroxybenzyl)pentanamide]"
